Patent US9061077B2 (Emory University, priority 2008, dated 2015)
Values joined by “and” are separate entries in the source; they are usually repeats but may differ in a detail not shown here. Equal entries are not always repeated. Where two headings read alike, the source gives them in different places.

Assays:
[1] = tested on: erythrocytes; assay: Erythrocyte uptake, rat blood; assay type: in vitro ADME; settings: rats
Method: (§1) Arterial blood samples were placed in capillary tubes and centrifuged to determine the hematocrit. Samples of the whole blood and packed cells (about 0.3 mL each) were pipetted into counting tubes, weighed, and counted. The percent uptake in the erythrocytes was calculated from the whole blood (counts/g) and packed cells (counts/g). Percent erythrocyte uptake=[(counts/g in erythrocytes×hematocrit)/counts/g in whole blood]. No correction was made for plasma trapped in the red blood cells sample. PPB and erythrocyte uptake were calculated in duplicate and the mean values reported.

[2] = Plasma clearance in healthy volunteers (single injection, two-compartment model); assay type: in vivo, human; settings: normal volunteers (n=5), individual values and mean
Excerpt: (§2) Inclusion criteria required the absence of any history of kidney and bladder diseases and a normal review of systems. Pregnancy was excluded in females by means of a urine pregnancy test.

[3] = Comparison of renal tracer clearances in human subjects relative to PAH (FIG. 4)
[4] = tested on: red blood cells; assay: Red cell uptake in healthy volunteers; assay type: in vitro ADME, human; settings: normal volunteers, individual values and mean
[5] = In vitro stability in physiological phosphate buffer pH 7.4 (HPLC); settings: phosphate buffer pH 7.4, 24 h, listed as Na2[^99mTc(CO)3(NTA)]
Method: (§5) The buffered solution was evaluated by HPLC at 24 h to assess stability. […] (0.1 mL) were mixed with 0.1 M solutions of histidine and cysteine (0.9 mL) and incubated at 37° C.; aliquots were analyzed by HPLC at 1, 2 and 4 h to evaluate decomposition.

[6] = Safety in healthy volunteers (vital signs, CBC, chemistry panel, urinalysis); assay type: in vivo, human; settings: about 74 MBq, pre- and 24 hr post-injection
Excerpt: as §2, with “Five healthy volunteers (3 male, 2 females; mean age±SD, 39.4±12.7 yrs; range 20-55 yrs) participated in this study. Inclusion” for “Inclusion”

[7] = tested on: plasma protein; assay: Plasma protein binding in healthy volunteers; assay type: in vitro ADME, human; settings: normal volunteers, individual values and mean
[8] = Renal (plasma) clearance at steady-state infusion in rats; assay type: in vivo; settings: steady-state co-infusion, average of three 10-min periods
Method: Two male rats were anesthetized as described above and placed on a heated surgical table. Following tracheostomy, the left jugular vein was cannulated with two pieces of PE-50 tubing (one for infusion of radiopharmaceuticals and one to infuse normal saline (5.8 mL/h) to maintain hydration and additional anesthetic (5 mg/h) as necessary). The right carotid artery was cannulated for blood sampling and the bladder was catheterized by use of PE-50 tubing. The core temperature of each animal was continually monitored throughout the study using a rectal temperature probe. […] (3.7 MBq/mL [100 μCi/mL]) and ^131I-OIH (1.85 MBq/mL [50 μCi/mL]), were co-infused at a flow rate of 1.7 ml/h for 60 mins to establish steady-state blood levels. […] The blood samples were centrifuged for 15 mins and plasma samples were obtained. Plasma clearance (CI) was determined by utilizing the equation: CI (mL/min)=UV/P, where U is the urine radioactivity concentration, V is the urine volume excreted per minute and P is the plasma radioactivity concentration.

[9] = cited from earlier work
[10] = Cysteine and histidine challenge at 37 C (HPLC); settings: 0.1 M cysteine and histidine, 4 h, listed as Na2[^99mTc(CO)3(NTA)]
Method: as §5

[11] = cited from earlier work; remark: listed apart in the source
[12] = eight human volunteers, single ingested dose of 10 mg; cited from earlier work
[13] = Renal extraction fraction in rats (arterial vs renal venous plasma); assay type: in vivo
Method: The extraction fraction (EF) was measured at the conclusion of the clearance measurements by obtaining a left renal venous blood sample (0.5 mL) followed immediately by a carotid artery sample (3 mL). Both blood samples were centrifuged immediately after collection to obtain plasma samples. EF was calculated by measuring the difference between the arterial and venous plasma sample: EF=(arterial concentration−venous concentration)/arterial concentration.

[14] = normal volunteers
[15] = Biodistribution in normal rats, Group A (Example 7, Table 3); assay type: in vivo, Sprague-Dawley rats; settings: for Percent injected dose in bowel: duodenum and colon samples; for Percent injected dose in blood: normal rats Group A, n=5
Method: (§3) Rats in both groups were anesthetized with ketamine-xylazine (2 mg/kg of body weight) injected intramuscularly, with additional supplemental anesthetic as needed. In the first group of ten normal rats (Group A), the bladder was catheterized by use of heat-flared PE-50 tubing. In the second group of six rats (Group B), the abdomen was open by a midline incision and both renal pedicles were ligated to produce a model of renal failure; thus no urine was collected.
(§4) One additional aliquot (0.2 mL) for each time point was diluted to 100 mL, and three 1-mL portions of the resulting solution were used as standards.
In Group A, 5 animals were sacrificed at 10 min, and 5 animals were sacrificed at 60 mins after injection. A blood sample was obtained, and the kidneys, heart, lungs, spleen, whole stomach and sections of the duodenum and ascending colon were removed and placed in counting vials. The whole liver was weighed, and random sections were obtained for counting. Samples of blood and urine were also placed in counting vials and weighed. […] The percentage of the dose in each tissue or organ was calculated by dividing the counts in each tissue or organ by the total injected counts. The percentage injected dose reported for the bowel was based on the combined counts of the duodenum and colon samples.

[16] = tested on: plasma protein; assay: Plasma protein binding by ultrafiltration, rat plasma; assay type: in vitro ADME; settings: rats
Method: as §1

[17] = Biodistribution in rats with renal pedicle ligation (renal failure model), Group B; assay type: in vivo, Sprague-Dawley rats; settings: 60 min
Method: as §3, §4
The 6 Group B rats were sacrificed 60 mins after injection. Selected organs, blood, and all of the small and large intestines were collected and counted as described above. The percentage injected dose reported for the bowel was based on the combined counts in the small and large intestines.

[18] = Biodistribution in Sprague-Dawley rats, percentage of injected dose (Example 6, Table 1); assay type: in vivo; settings: for Percentage of injected dose in bowel: combined stomach and intestine
Method: Five samples for the 10 mins study, and six samples for the 60 mins study were used; the one sample for each time point was diluted to 100 ml, and three 1-ml portions of the resulting solution were used as standards. Each rat was anesthetized with ketamine-xylazine (2 mg/kg of body weight) injected intramuscularly, with additional supplemental anesthetic as needed. The bladder was catheterized by use of heat-flared PE-50 tubing (Becton, Dickinson and Co.) for urine collection.
A blood sample was obtained, and the heart, lungs, spleen, liver, intestines, stomach, and kidneys were removed. The whole liver was weighed, and random sections were obtained for counting. Blood, urine, whole organs, and tissue samples were placed in tubes, and each sample was weighed. […] The percentage of the dose in each tissue or organ was calculated by dividing the counts in each tissue or organ by the total injected counts, using reference counts from an accurately diluted sample of the original injection. The value given for the bowel represented combined stomach and intestine activities.

[19] = tested on: red blood cells; settings: human blood, equilibrium conditions; cited from earlier work
[20] = background statement; cited from earlier work
[21] = tested on: plasma protein; settings: rats, cited from earlier work
[22] = normal volunteers; cited from earlier work
[23] = cited from earlier work; remark: listed apart in the source
[24] = humans, cited from earlier work

technetium-99m tricarbonyl-nitrilotriacetic acid [^99mTc(CO)3(NTA)]
Erythrocyte (red cell) uptake ([1]; listed as Na2[^99mTc(CO)3(NTA)]): 7±2% and 7%
Plasma clearance, Cl [2]: 480 mL/min
Plasma clearance, Cl ([2]; listed as 99mTc-NTA): 477.1 mL/min and 607.9 mL/min and 388.5 mL/min and 434.2 mL/min and 491.8 mL/min
Plasma clearance, Cl ([2]; listed as 99mTc-NTA, mean): 479.90 mL/min
Clearance relative to PAH (PAH assigned 100%) [3]: about 90%
RBC (red cell uptake) [4]: 12%
RBC (red cell uptake) ([4]; listed as 99mTc-NTA): 6% and 15% and 20% and 16% and 4%
RBC (red cell uptake) ([4]; listed as 99mTc-NTA, mean): 12%
Stability at physiological pH [5]: stable for 24 h
Toxicity (blood pressure, heart rate, temperature, CBC, chemistry panel, urine analysis) [6]: no evidence of any toxicity
PPB (plasma protein binding) [7]: 45%
PPB (plasma protein binding) ([7]; listed as 99mTc-NTA): 39% and 40% and 50% and 42% and 53%
Plasma clearance [8]: 3.08 mL/min/100 g
pKa of the pendant carboxylic acid [9]: approximately 3
Stability to cysteine and histidine challenge [10]: no degradation

O=C(O)CN(CC(=O)O)CC(=O)O [NTA, nitrilotriacetic acid]
Acceptable daily intake in drinking water (Health Canada) ([11]; based on two-year rat studies, nephrotoxic no-observed-adverse-effect level): 10 μg/kg bw per day
Dose inducing urinary tract tumors ([11]; rats and mice, two years): about 840 mg/kg bw per day
Adverse effects (physical examination, blood chemistry, urinalysis) [12]: no evidence of adverse effects

O=C(O)CNC(=O)c1ccccc1[131I] [^131I-OIH, ^131I-ortho-iodohippurate]
Erythrocyte (red cell) uptake [1]: 35±1% and 35%
Plasma clearance, Cl [2]: 482 mL/min and 423.4 mL/min and 433.4 mL/min and 481.94 mL/min and 497.49 mL/min and 442 mL/min and 613.4 mL/min
Clearance relative to PAH (PAH assigned 100%) [3]: about 90%
Extraction fraction [13]: 67.9±6.1% and 67.9%
RBC (red cell uptake) [4]: 20% and 15% and 21% and 25% and 24% and 14%
Urine 30 min (percent dose excreted) ([14]; 30 minutes): 80% and 74% and 78% and 55% and 64%
Urine (percent dose in urine) ([14]; collection time not given (voids at 30, 90, 180 min)): 98% and 93% and 96% and 83% and 81%
Percent injected dose in kidney ([15]; Group A, 10 min): 5.6 ± 0.6%
Percent injected dose in liver ([15]; Group A, 10 min): 4.0 ± 0.7%
Percent injected dose in urine ([15]; Group A, 10 min): 53.2 ± 7.2%
Percent injected dose in bowel ([15]; Group A, 10 min): 2.2 ± 0.4%
Mean total injected activity present in heart, lungs, spleen, blood and liver ([15]; Group A, 60 min): 1.1%
Percent injected dose in kidney ([15]; Group A, 60 min): 0.5 ± 0.0%
Percent injected dose in liver ([15]; Group A, 60 min): 0.6 ± 0.3%
Percent injected dose in urine ([15]; Group A, 60 min): 91.4 ± 3.7%
Percent injected dose in bowel ([15]; Group A, 60 min): 1.0 ± 0.5%
Percent injected dose in blood ([15]; 10 min): 5.6 ± 1.0%
Percent injected dose in blood ([15]; 60 min): 0.5 ± 0.0%
PPB (plasma protein binding) [7]: 77% and 74% and 79%
Plasma clearance [8]: 2.96 mL/min/100 g
Plasma protein binding [16]: 44±10%
Percent injected dose in kidney ([17]; Group B): 0.8 ± 0.2%
Percent injected dose in liver ([17]; Group B): 9.7 ± 1.7%
Percent injected dose in bowel ([17]; Group B, small and large intestines): 14.6% and 14.6 ± 2.8%
Percent injected dose in blood ([17]; renal pedicle ligation Group B, n=6): 15.1% and 15.1 ± 0.9%
Percentage of injected dose in heart ([18]; 10 min): 0.2 ± 0.1%
Percentage of injected dose in kidney ([18]; 10 min): 5.6 ± 0.6%
Percentage of injected dose in liver ([18]; 10 min): 4.0 ± 0.7%
Percentage of injected dose in lung ([18]; 10 min): 0.5 ± 0.2%
Percentage of injected dose in urine ([18]; 10 min): 53.2 ± 7.2%
Percentage of injected dose in bowel ([18]; 10 min): 2.5 ± 0.5%
Percentage of injected dose in blood ([18]; 10 min post-injection, n=5): 5.6 ± 1.0%
Percentage of injected dose in heart ([18]; 60 min): 0.0 ± 0.0%
Percentage of injected dose in kidney ([18]; 60 min): 0.5 ± 0.0%
Percentage of injected dose in liver ([18]; 60 min): 0.7 ± 0.2%
Percentage of injected dose in lung ([18]; 60 min): 0.1 ± 0.1%
Percentage of injected dose in urine ([18]; 60 min): 91.4 ± 3.7%
Percentage of injected dose in bowel ([18]; 60 min): 1.7 ± 0.7%
Percentage of injected dose in blood ([18]; 60 min post-injection, n=6): 0.5 ± 0.0%
Fraction bound to or inside red blood cells [19]: 15-20%

O=C([O-])CN(CCN(CC(=O)[O-])CC(=O)[O-])CCN(CC(=O)[O-])CC(=O)[O-].[99Tc+4] [^99mTc-DTPA]
Extraction fraction (EF) [20]: 20%

O=C([O-])CN=C([O-])CN=C([O-])CN=C([O-])C[S-].[O-2].[Tc+4] [^99mTc-MAG3, technetium-99m mercaptoacetyltriglycine]
Extraction fraction (EF) [20]: 50-60%
Protein binding ([21]; before infusion): 78%
Protein binding ([21]; following PAH infusion): 44%
Protein binding ([21]; following ammonium chloride infusion): 63%
Protein binding ([21]; following mannitol infusion): 42%
Protein binding ([21]; following sodium bicarbonate infusion): 65%
Clearance relative to PAH (PAH assigned 100%) [3]: substantially less than that of PAH
Clearance relative to PAH (PAH assigned 100%) ([3]; listed as 99mTcMAG3): substantially less
Injected dose transported into the small intestine via the hepatobiliary system [22]: 0.5-1.0%
Hepatobiliary clearance ([23]; fasting rats): 11.7%
Hepatobiliary clearance ([23]; rats with free access to food): 6.6%
Clearance as multiple of the clearance of 99mTc-DTPA [24]: 2-2.5 times

^99mTc-DD-ethylene dicysteine
Clearance as percent of that of PAH ([24]; literature): 60-65%
